Experimental data reported in BindingDB's records for doi:10.7270/Q2TX3CTT (Broad Institute, 2010).

Molecular target: Glycogen synthase kinase-3 beta (Homo sapiens, UniProt P49841)
Test: GSK3beta kinase inhibitor potency, dose response, biochemical, luminescence, cell-free homogeneous, retest (AID 434954)

Chain of Glycogen synthase kinase-3 beta (P49841 whole entry): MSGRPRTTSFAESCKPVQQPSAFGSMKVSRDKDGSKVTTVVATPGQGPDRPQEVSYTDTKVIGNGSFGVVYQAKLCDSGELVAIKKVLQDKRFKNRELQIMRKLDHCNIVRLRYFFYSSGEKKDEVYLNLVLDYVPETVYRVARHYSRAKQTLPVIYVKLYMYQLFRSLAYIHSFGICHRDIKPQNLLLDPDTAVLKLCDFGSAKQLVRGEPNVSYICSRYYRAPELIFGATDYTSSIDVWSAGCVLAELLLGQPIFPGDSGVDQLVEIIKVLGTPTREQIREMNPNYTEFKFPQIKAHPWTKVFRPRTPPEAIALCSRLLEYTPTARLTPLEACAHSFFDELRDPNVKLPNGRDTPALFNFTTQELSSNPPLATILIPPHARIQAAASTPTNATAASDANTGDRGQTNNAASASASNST

Structure (SMILES) | EC50 [µM]
Cc1ccc(S(=O)(=O)N2CN(Cc3ccco3)c3nc4ccccc4nc32)cc1 [SMR000145587] | > 300
COc1ccc(-c2nn(-c3ccccc3)cc2C=NNS(=O)(=O)c2ccccc2)cc1 | > 300
COc1ccc(C2=NOC(C(=O)Nc3cccnc3)C2)cc1 (stereo not drawn) [SMR000130842] | > 300
Nc1c(C(=O)c2ccccc2)sc(Nc2ccccc2)c1S(=O)(=O)c1ccccc1 [SMR000115215] | > 300
COc1ccc(C(=O)c2ccsc2N)cc1 [MLS001166080] | > 300
COc1ccc(C2C3=C(CC(C)(C)CC3=O)Nc3c2c(=O)nc2nc(C)[nH]n32)cc1 (stereo not drawn) [SMR000035838] | > 300
CCOC(=O)c1ccc(NC(=O)CSc2nnc(C3CC3)n2CC)cc1 [MLS000121467] | > 300
COc1cccc(C2c3c(n[nH]c3C)N=C3CC(C)(C)CC(=O)C32)c1 (stereo not drawn) [SMR000347812] | 0.958
O=C1NC(=O)N(CCc2ccc(F)cc2)C(=O)C1=CNN1CCCCC1 [1-[2-(4-Fluoro-phenyl)-ethyl]-5-[1-(piperidin-1-ylamino)-meth-(Z)-ylidene]-pyrimidine-2,4,6-trione] | > 300
O=Cc1cn(CCC(=O)O)nc1-c1cccc(Cl)c1 | > 300
COc1cc(/C=C2/C(=O)NN(c3cccc(Cl)c3)C2=O)cc(Br)c1O [MLS001210835] | 42.6
CC1(C)CC(=O)C=C(Nc2ccccc2F)C1 [SMR000105669] | > 300
CC(=NNC(=O)c1ccc(C(=O)NN=C(C)c2ccco2)o1)c1ccco1 [N'~2~,N'~5~-bis[1-(2-furyl)ethylidene]-2,5-furandicarbohydrazide] | > 300
Nc1nc(NCCCN2CCOCC2)nc(Nc2ccc(F)cc2)c1[N+](=O)[O-] [4-N-(4-fluorophenyl)-2-N-(3-morpholin-4-ylpropyl)-5-nitropyrimidine-2,4,6-triamine] | > 300
CCOC(=O)C1=C(C)NC(=O)C1=CNc1ccccc1 [SMR000168580] | 51.5
COc1ccc(Nc2nc(NCCCN3CCOCC3)nc(N)c2[N+](=O)[O-])cc1 [N4-(4-methoxyphenyl)-N2-(3-morpholin-4-ylpropyl)-5-nitro-pyrimidine-2,4,6-triamine] | 1.11
O=C1NC(c2ccncc2)Nc2sc3c(c21)CCCC3 (stereo not drawn) | > 300
CCN(CC)Cc1c(C(=O)OC)nnn1-c1nonc1N [MLS000085717] | > 300
CCCC(=O)Nc1nn(CC(C)C)c2nc3cc(C)ccc3cc12 [SMR000540561] | > 300
c1ccc(CSc2nnc(-c3ccncc3)o2)cc1 | 5.14
Cc1cccc(COc2ccc(C=NNC(=O)c3nnn(-c4nonc4N)c3CN3CCCCC3)cc2)c1 [SMR000646486] | > 300
CC(NC(=O)/C=C/c1ccco1)c1nc2ccccc2n1Cc1ccccc1F (stereo not drawn) | > 300
Cc1ccc(CNc2nc(N)c([N+](=O)[O-])c(NCCO)n2)cc1 | 117
CC(=O)NCC1COc2ccccc2O1 (stereo not drawn) [N-(2,3-dihydro-1,4-benzodioxin-3-ylmethyl)ethanamide] | > 300
Cc1ccc(Nc2nc(N)c([N+](=O)[O-])c(NCCO)n2)cc1C [SMR000436043] | 14.6

Structure (SMILES) | EC50 [µM]
Cc1ccnc(NC(=O)Cc2ccc([N+](=O)[O-])cc2)c1 [N-(4-methylpyridin-2-yl)-2-(4-nitrophenyl)ethanamide] | 21.4
COc1ccc(C(=O)ON=C(N)c2ccccn2)cc1 [SMR000608101] | 13.2
COc1ccc2c(c1)-c1c(ssc1=S)C(C)(C)N2C(=O)CSC1=NCCS1 [2-(4,5-dihydrothiazol-2-ylthio)-1-(8-methoxy-4,4-dimethyl-1-sulfanylidene-5-dithiolo[3,4-c]quinolinyl)ethanone] | > 300
COc1ccc(-c2cc(=O)oc3c(C)c(O)ccc23)cc1 [7-hydroxy-4-(4-methoxyphenyl)-8-methylchromen-2-one] | > 300
O=C(/C=C/c1ccc2ccccc2c1)c1ccoc1 [SMR000179251] | > 300
Nc1nc(NCCO)nc(NC2CCCCC2)c1[N+](=O)[O-] [2-[[4-amino-6-(cyclohexylamino)-5-nitro-2-pyrimidinyl]amino]ethanol] | 1.36
Cc1c(C(=O)O)sc2ncnc(N3CCCCC3C)c12 (stereo not drawn) [5-methyl-4-(2-methyl-1-piperidinyl)thieno[2,3-d]pyrimidine-6-carboxylic acid] | > 300
Nc1nc(NCC2CCCO2)nc(NCC2CCCO2)c1[N+](=O)[O-] (stereo not drawn) | 12.2
Cn1c(=O)c2[nH]c(CCCC(=O)O)nc2n(Cc2ccccc2)c1=S [4-(3-benzyl-1-methyl-6-oxo-2-sulfanylidene-7H-purin-8-yl)butanoic acid] | 5.17
CN(C)c1ccc(-c2nc3ccccc3n2C)cc1 [MLS000089904] | > 300
CCSc1ncnc2c(C#N)c3n(c12)CCCCC3 [4-ethylsulfanyl-7,8,9,10-tetrahydro-6H-pyrimido[3,4]pyrrolo[3,5-a]azepine-11-carbonitrile] | 77.5
CCOC(=O)COc1ccc(C(=O)c2ccccc2)c(O)c1 [(4-Benzoyl-3-hydroxy-phenoxy)-acetic acid ethyl ester] | > 300
COCCCNc1nc(N)c([N+](=O)[O-])c(Nc2ccccc2OC)n1 [4-N-(2-methoxyphenyl)-2-N-(3-methoxypropyl)-5-nitropyrimidine-2,4,6-triamine] | 0.231
COc1ccc(C(=O)ON=C(C)c2cccs2)cc1 [MLS000544771] | 13.9
COc1cc(CN=Nc2nc(Nc3ccccc3)nc(N3CCCCC3)n2)ccc1OCC(=O)O [SMR000312683] | > 300
COc1cc(CN=Nc2ccc([N+](=O)[O-])cc2)ccc1OCC(=O)Nc1ccc(C)c(C)c1 [MLS000537060] | > 300
CC(C)CNc1nc(N)c([N+](=O)[O-])c(NC2CCCCC2)n1 [MLS001213331] | 13.5
O=C(Cn1cc[n+](CC(=O)c2ccc(Cl)cc2Cl)c1)c1ccc(Cl)cc1Cl [1,3-Bis-[2-(2,4-dichloro-phenyl)-2-oxo-ethyl]-3H-imidazol-1-ium] | > 300
O=C1N=C(N2CCc3ccccc3C2)S/C1=C\c1ccc(O)cc1 [MLS001043290] | > 300
CCN1CCN(c2cc(C)c3cc(NC(=O)c4cc(OC)cc(OC)c4)ccc3n2)CC1 [N-[2-(4-ethylpiperazin-1-yl)-4-methylquinolin-6-yl]-3,5-dimethoxybenzamide] | > 300
O=C(CN1CCN(Cc2ccccc2Cl)CC1)NN=Cc1ccccn1 | 51.5
N#Cc1c(N)nc2c(c1-c1ccc(F)cc1)CCC2 | > 300
N#Cc1c(Cl)nc(-c2cccnc2)nc1-c1ccccc1 [MLS001165453] | > 300
O=c1c(-c2ccc(O)cc2)coc2cc(O)cc(O)c12 [Prunetol] | > 300
CCOc1ccc2c(c1)-c1c(ssc1=S)C(C)(C)N2 [SMR000116364] | > 300

Structure (SMILES) | EC50 [µM]
CCN(CC)C(=O)COc1cc(C)cc2oc(=O)cc(-c3ccccc3)c12 [N,N-diethyl-2-(7-methyl-2-oxo-4-phenylchromen-5-yl)oxyacetamide] | > 300
O=C(O)c1cc(-c2ccc(C=NNC(=S)Nc3ccccc3)o2)ccc1Cl [5-[5-[[[anilino(sulfanylidene)methyl]hydrazinylidene]methyl]-2-furanyl]-2-chlorobenzoic acid] | > 300
O=C(NCc1ccccn1)c1ccc(Cn2cc(Br)cn2)o1 [SMR000073000] | > 300
Cc1cccc(NC(=O)CSc2nc(O)c(C#N)c(-c3ccccc3)n2)c1C [SMR000161905] | > 300
Clc1ccc(-c2nnc(-c3ccccc3)c(N3CCSCC3)n2)cc1 | > 300
COc1ccc(OC)c(Nc2nc(N(C)c3ccccc3)nc(N)c2[N+](=O)[O-])c1 [MLS001215240] | > 300
CC(=O)N1CCc2c(sc(NC(=O)C3CCCN3S(=O)(=O)c3cccs3)c2C(N)=O)C1 (stereo not drawn) [6-acetyl-2-[(1-thiophen-2-ylsulfonylpyrrolidine-2-carbonyl)amino]-5,7-dihydro-4H-thieno[2,3-c]pyridine-3-carboxamide] | > 300
COc1ccc(-c2nn(-c3ccccc3)cc2CN=Nc2ccccn2)cc1OC [MLS000388893] | 66.1
COc1ccccc1Nc1nc(NCCCN(C)C)nc(N)c1[N+](=O)[O-] [N2-[3-(dimethylamino)propyl]-N4-(2-methoxyphenyl)-5-nitro-pyrimidine-2,4,6-triamine] | 2.13
COc1ccc2c(c1)cc1c(=O)n(CC(=O)NCCCN3CCOCC3)nc(C)n12 [SMR000624522] | > 300
O=C(O)c1ccccc1N=NCc1ccnc2ccccc12 | > 300
CC(C)(C)NC(=O)NC(=O)CSc1nncs1 [N-[(tert-butylamino)-oxomethyl]-2-(1,3,4-thiadiazol-2-ylthio)acetamide] | > 300
CCCN(CCC)CCCNc1ccc2nnc(-c3ccc(F)cc3)n2n1 [N-[3-(4-fluorophenyl)-[1,2,4]triazolo[4,3-b]pyridazin-6-yl]-N',N'-dipropyl-propane-1,3-diamine] | 11.3
CCOC(=O)CC(=O)CSc1ccc2nnc(-c3ccc(F)cc3)n2n1 [ethyl 4-{[3-(4-fluorophenyl)[1,2,4]triazolo[4,3-b]pyridazin-6-yl]thio}-3-oxobutanoate] | 83.8
COc1cccc(C(=O)Nc2nc3ccc(S(C)(=O)=O)cc3s2)c1 [SMR000280607] | > 300
CC(=O)Oc1ccc2occ(C(=O)c3cccs3)c2c1 [SMR000106284] | > 300
Cc1ccccc1CSc1nc2n(n1)C(c1cccs1)C1C(=O)CCCC1=N2 (stereo not drawn) [2-[(2-methylphenyl)methylsulfanyl]-9-thiophen-2-yl-5,6,7,9-tetrahydro-1H-[1,2,4]triazolo[5,1-b]quinazolin-8-one] | > 300
Cc1ccc(N2CCN(C(=O)N3CCOCC3)CC2)c(C)c1 [[4-(2,4-dimethylphenyl)piperazin-1-yl]-morpholin-4-ylmethanone] | > 300
CCOc1ccc(N2C(=O)C(=Nc3ccccc3O)C(Cl)C2=O)cc1 (stereo not drawn) [SMR000124402] | > 300
CC(=O)c1ccc(Cc2cnc(N)s2)cc1 [1-{4-[(2-amino-1,3-thiazol-5-yl)methyl]phenyl}ethanone] | > 300
COc1ccc(Nc2nc(NCCN3CCOCC3)nc(Nc3ccc(OC)cc3)n2)cc1 | > 300
Cn1c(=O)[nH]c(=O)c2c1nc1n2CCCS1 | > 300
CCN(CC)Cc1c(C(=O)OC(C)C)nnn1-c1nonc1N [propan-2-yl 1-(4-azanyl-1,2,5-oxadiazol-3-yl)-5-(diethylaminomethyl)-1,2,3-triazole-4-carboxylate] | > 300
